Data as given in patent US9580430B2, “9H-pyrimido[4,5-B]indoles and related analogs as BET bromodomain inhibitors” (THE REGENTS OF THE UNIVERSITY OF MICHIGAN, priority 2014, dated 2017).

Test system: VCaP prostate cancer cells
Test: Cell growth inhibition, VCaP prostate cancer cells (Cell-Titer GLO)
Assay type: cell-based
Conditions: 8 days; FIG. 22
Method: For prostate cancer cell lines, VCaP prostate cancer cells were grown in DMEM with Glutamax (Gibco) supplemented with 10% FBS (Invitrogen) in 5% CO2 cell culture incubator. All cell lines were tested and found to be free of mycoplasma contamination. Cells were seeded in 96-well plates at 2,000-10,000 cells per well (optimum density for growth) in a total volume of […] media containing 10% FBS. Serially diluted compounds in […] media were added to the cells 12 h later. […] The values were normalized and IC50 was calculated using GraphPad Prism software.
Cells were seeded in 96-well plates at 2000-10,000 cells/well (optimum density for growth) in a total volume of 100 μl media containing 10% FBS. Serially diluted compounds in 100 μl media were added to the cells 12 h later. Following 96 h. incubation, cell viability was assessed by Cell-Titer GLO (Promega). The values were normalized and IC50 was calculated using GraphPad Prism software. […] After 12 days cells were fixed with methanol, stained with crystal violet and photographed. For colorimetric assays, the stained wells were treated with 500 μl 10% acetic acid and the absorbance was measured at 560 nm using a spectrophotometer.

Structure (SMILES): Cc1sc2c(c1C)C(c1ccc(Cl)cc1)=N[C@@H](CC(=O)OC(C)(C)C)c1nnc(C)n1-2 [JQ1]
- VCaP cell viability in vitro: suppression of cell growth at sub-micromolar concentrations
